15 compounds from PubChem BioAssay (NCI) can be followed below.

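48-hour exposure; five concentrations; linearly interpolated endpoints. At the GI50, growth is halved. TGI: concentration producing complete growth inhibition.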

Common to all, as to test: NCI anticancer screen, dose series, 48 h
The test system of test [1] is CCRF-CEM leukemia.
For test [2], the system named is HT29 colon.
The test system of test [3] is MALME-3M melanoma.
The subject of test [4] is NCI-H23 lung.
Test [5] has as its system NCI-H522 lung.
Test [6] concerns RPMI-8226 leukemia.
Test [7] concerns SF-268 CNS.
Test [8] relates to SK-OV-3 ovarian.
Test [9] has as its system SR leukemia.
Test [10] relates to TK-10 renal.

With `COc1cc2cc3c4c(cc(OC)c(OC)c4c2cc1OC)CCN3C(=O)CCCC(=O)O`, the TGI in [1], in test [2], in [3], in test [4], in [5] and in test [6] was above 100 µM throughout. Besides, the TGI in test [7], in test [8], in test [9] and in test [10] was above 100 µM each time.

Consider `COc1cc(CNC(=O)/C=C/C=C/c2ccc3c(c2)OCO3)ccc1OCc1cn(-c2ccc(Cl)c(Cl)c2)nn1`, for which the GI50 in test [1] was 1.44 µM; in test [2] it was 2.49 µM; in [3] it was 0.476 µM; in test [4], 0.588 µM; in test [5], 1.81 µM; in [6] it was 2.3 µM. The GI50 in [7] was 2.3 µM; in test [8], 2.54 µM; in [9] it was 2.8 µM; in test [10], 2.31 µM. Besides, the TGI in test [1] turned out to be 12.6 µM; in [2], 8.18 µM; in test [3], 1.92 µM; in [4], 2.34 µM; in test [5] it was 5.11 µM; in [6], 8.36 µM. Further, the TGI in [7] came out at 7.94 µM; in [8], 6.57 µM; in test [9] it was 19.1 µM; in test [10] it was 7.65 µM.

`C[N+](C)(C)CCOP(=O)(O)OP(=O)([O-])OCC1CCC(n2ccc(N)nc2=O)O1` (configuration not stated): the TGI in test [1], in test [2], in test [3], in test [4], in test [5] and in test [6] was above 100 µM throughout. For the same compound, the TGI in [7], in [8], in test [9] and in test [10] was above 100 µM in each case.

With `OC(c1cc(C(O)(C(F)(F)F)C(F)(F)F)ncn1)(C(F)(F)F)C(F)(F)F`, the TGI in [1], in [2], in test [3], in [4], in test [5] and in test [6] was above 10 µM throughout. Moreover, the TGI in test [7], in [8], in test [9] and in test [10] was above 10 µM in each case.

Take `CCN(CC)CCn1ncc2ccc3c(c(=O)c4cccnc4n3CCN(CC)CC)c21`: the TGI in test [1] was determined as 1.82 µM; in test [2] it was 3.13 µM; in [3], 3.32 µM; in [4], 3.05 µM; in test [5] it was 2.35 µM; in test [6] it was 4.21 µM. Moreover, the TGI is 4.66 µM in test [7], above 9.46 µM in test [8], 1.3 µM in [9] and above 10 µM in [10].

Turning to `COc1cc2c(cc1OC)C(CCc1ccc(Cl)cc1)N(C)CC2` (configuration not stated), the GI50 is 29.1 µM in [1]; 14.2 µM in [2]; 21.6 µM in [3]; 30.1 µM in test [4]; 20 µM in test [5]; 24.9 µM in test [6]. Further, the GI50 in [7] is 35 µM; in test [8], 32.2 µM; in [9], 28.4 µM; in test [10], 17 µM. The TGI was above 100 µM in test [1]; 86 µM in test [2]; 46.5 µM in test [3]; above 100 µM in test [4]; 38.6 µM in [5]; above 100 µM in test [6]. Further, the TGI in [7] was above 100 µM; in test [8], above 100 µM; in test [9], 63.4 µM; in test [10], 42.2 µM.

As for `CN(C)c1cccc(-c2cc(=O)c3ccccc3[nH]2)c1`, the TGI in test [1] was above 100 µM; in test [2], above 100 µM; in [3], above 100 µM; in test [4] it was above 100 µM; in [5], 57.6 µM; in test [6], above 100 µM. For the same compound, the TGI in test [7], in test [8], in test [9] and in test [10] was above 100 µM throughout. Moreover, the GI50 in test [7] is 76.6 µM.

`CCc1cccc(C(C)CC)c1N=C(NC(=O)c1ccccc1C(=O)NC(=Nc1c(CC)cccc1C(C)CC)SC)SC` (configuration not stated): the TGI in test [1] is above 100 µM; in [2] it was above 100 µM; in test [3], above 100 µM; in test [4] it was above 100 µM; in test [5], 64.4 µM; in test [6], 89.8 µM. Also, the TGI in test [7] was above 100 µM; in test [8] it was above 100 µM; in test [9], above 100 µM; in [10], 79 µM.

As to `CC(C)=CC/C=C(/C)[C@H]1CC[C@]2(C)[C@@H]1CC[C@@H]1[C@@]3(C)CCC(=O)NC(C)(C)[C@@H]3CC[C@]12C`, the GI50 in [1] was 12.4 µM; in test [2] it was 20.4 µM; in test [3], 16 µM; in test [4], 18.3 µM; in test [5] it was 18.4 µM; in test [6], 11.8 µM. The GI50 was 17.2 µM in test [7], 47.7 µM in test [8], 17.4 µM in test [9] and 47.5 µM in [10]. The TGI in test [1] was determined as 47.9 µM; in test [2], 72.3 µM; in test [3], 30.8 µM; in test [4], 45.7 µM; in test [5], 40.2 µM; in [6], 34.6 µM. The TGI in [7] is 34.6 µM; in test [8] it was above 100 µM; in test [9], 51.8 µM; in test [10] it was above 100 µM.

Take `CCN1CCN(CCOc2ccc(CNc3ccc4nc(CCC5CCCCC5)[nH]c4c3)cc2)CC1`: the GI50 in [1] was 1.61 µM; in test [2] it was 0.563 µM; in test [3], 1.57 µM; in test [4] it was 2.38 µM; in [5], 2.44 µM; in [6] it was 1.43 µM. For the same compound, the GI50 is 2 µM in test [7], 2.28 µM in [8], 0.303 µM in [9] and 2.93 µM in test [10]. The TGI in [1] amounted to 8.75 µM; in test [2] it was 2.38 µM; in test [3], 3.08 µM; in test [4] it was 6.94 µM; in test [5], 5.95 µM; in test [6], 3.79 µM. Moreover, the TGI is 5.16 µM in test [7], 5.16 µM in test [8], 0.941 µM in test [9] and 8.06 µM in [10].

In the case of `C=C1CC[C@@H]2C(C)(C)[C@@H](O)CC[C@@]2(C)[C@@H]1COc1ccc2ccc(=O)oc2c1`, the TGI in test [1] is 68.3 µM; in test [2] it was 32.6 µM; in test [3], 31.2 µM; in test [4] it was 33.8 µM; in test [5] it was 36.1 µM; in test [6], 65.7 µM. In addition, the TGI is 33.1 µM in test [7], 83.9 µM in test [9] and 43.4 µM in test [10]. Moreover, the GI50 in test [2] is 8.61 µM; in test [4], 13.8 µM; in test [5] it was 13.1 µM; in [6], 8.75 µM; in test [7] it was 12.2 µM; in [9], 19.4 µM. Besides, in test [10], the GI50 was 15.3 µM.

Turning to `CC(=O)Nc1ccc2nncnc2c1`, the TGI in [1], in test [2], in [4], in test [5], in test [6] and in test [7] was above 100 µM throughout. Also, the TGI in [8], in [9] and in test [10] was above 100 µM each time.

For `COc1ccc(/C=C2/C(=O)N(C(=O)c3ccccc3O)N=C2C)cc1OC`, the TGI in [1], in test [2], in test [3], in test [5], in test [6] and in test [7] was above 100 µM throughout. In addition, the TGI in test [8], in test [9] and in [10] was above 100 µM each time.

On to `O=S(=O)(NCCNc1nccc(-c2c(-c3cccc(O)c3)nc3sccn23)n1)c1ccc(F)cc1`, for which the GI50 in test [1] was 2.8 µM; in test [2] it was 2.66 µM; in test [4], 11.1 µM; in test [5], 6.44 µM; in test [6], 4.26 µM; in [7], 7.51 µM. Further, the results for the GI50 in test [8], in test [9] and in test [10] were 5.37 µM, 2.65 µM and 11.9 µM, respectively. For the same compound, the TGI in test [1] is above 100 µM; in test [2] it was 32.4 µM; in test [4], 38.2 µM; in [5] it was 27.1 µM; in test [6], 22.7 µM; in test [7], 42.3 µM. In addition, the figures for the TGI in test [8], in test [9] and in [10] were 59 µM, 57.3 µM and 42.1 µM, respectively.

Take `CCOC(=O)CC(=O)ON(C)C(=O)Cc1ccccc1`: the TGI in test [1], in [2], in test [3], in [4], in [5] and in [6] was above 100 µM each time. In addition, the TGI in test [7], in test [8] and in [9] was above 100 µM throughout.
